Bridge positions count the residues as written; N and C are the ends. Ends that are not written are not given here. Peptide text beside a SMILES is read from it.
Columns and labels:
[1] = tested on: rabbit anti-salmon MCH antibody (Antibody PBL #171); experiment: Radioimmunoassay based on rabbit anti-salmon MCH antibody PBL #171 with 125I-salmon MCH tracer; type: binding; settings: for cross-reactivity in the salmon MCH radioimmunoassay: Antibody PBL #171
Protocol: Salmon MCH, having the formula [drawing 7] is synthesized and purified as described in Example I. It is then conjugated to human alpha-globulins (U.S. Biochemicals, Frac IV) via glutaraldehyde by a reaction well known in the art. The salmon MCH-human alpha-globulins conjugate is diluted with physiological saline (0.9%s/v) to a final concentration of 1 mg total protein per milliliter Freund's Complete Adjuvant Modified M. butyricum (Calbiochem) is emulsified with an equal volume of saline containing either 1 mg conjugate/ml (for initial injections) or 0.5 mg conjugate/ml (for boosters). For each immunization, the rabbits receive a total of 1 ml emulsion in 20-30 intradermal sites; they are injected every 2 weeks and bled through an ear vein 7 days after each booster. Blood is allowed to clot, and serum is separated from cells by centrifugation. The antiserum from each bleeding is characterized with respect to titer and affinity. Some of this antiserum is labelled PBL #171.
Salmon MCH (1 μg) is radiolabelled using 1 mCurie Na^125 I (New England Nuclear, NEZ 033L) and 1 μg Chloramine T in a total volume of 40 μl of 1.25M sodium phosphate buffer, pH 7.5. Reaction is allowed to proceed for 30-45 seconds and then immediately quenched by the addition of 10 mg bovine serum albumin (BSA). ^125 I-salmon MCH is then purified by adsorption and elution from a BondElut C18 cartridge (Analytichem International). The eluant from the C18 cartridge is reduced to about 200 μl using a Savant Speed-Vac and then further purified by HPLC using a Vydac C18 column, 0.46×25 cm, 5 μm, 300 Å pore size. Buffer A is 0.1% trifluoroacetic acid (TFA); buffer B is 60% acetonitrile in 0.1% TFA. ^125 I-salmon MCH is loaded at 35% B at a flow rate of 1.5 ml/min, and a gradient is then run to 70% B in 40 minutes. Peak tubes of radioactivity are made 0.5% final in BSA. Several peaks of radioactivity are reproducibly eluted, and the first major zone of radioactivity is routinely used for the radioimmunoassay.
Throughout the purification, fractions are monitored using an RIA based upon this rabbit anti-salmon MCH antibody. Aliquots for assay are transferred into glass tubes containing BSA (10 μl of 10 mg/ml) and dried in a Savant Speed Vac. Fractions are resuspended in RIA assay buffer and pH checked and adjusted if necessary with NaOH. The radioimmunoassay is carried out using chilled reagents and with tubes partially immersed in ice water. On day one, 100 μl of buffer with Antibody PBL #171 1/24,000 dilution (1/120,000 final dilution) is added to glass tubes containing standard or test samples or buffer only in a volume of 300 μl. All treatments are tested in duplicate. Buffer is 0.1M sodium chloride, 0.05M sodium phosphate, 0.025M ethylenediaminetetraacetic acid (EDTA), 0.1% sodium azide, pH 7.5 (SPEA buffer) with 0.1% BSA. Standards ranging from 0.5 to 2000 pg of synthetic salmon MCH are used. Samples are tested at 2-5 dose levels. After these additions, tubes are vortexed and incubated at 4 ° C. for 24 hours. On day two, 20,000 cpm of ^125 -salmon MCH with 0.5% normal rabbit serum diluted in SPEA buffer +0.1% BSA is added in a volume of 100 μl to all tubes. The tubes are vortexed and returned to the cold for approximately 24 hours. On day three, tracer bound to antibody is precipitated with sheep anti-rabbit gamma globulins (100 μl, 1/40 dilution) and 0.5 ml of 10% (w/v) polyethylene glycol (SIGMA, MW=6,000 to 8,000). Tubes are vortexed and incubated 15 to 30 minutes at room temperature. Tubes are washed with 1 ml of SPEA buffer and centrifuged at 4° C. for 30-45 minutes at 2000× g. Supernatants are decanted, and pellets are counted in a gamma counter. Results are calculated using a standard logit/log radioimmunoassay data processing program NICHD RRB, NIH.

[2] = tested on: antibodies against human GRF; experiment: Cross-reaction with antibodies against human GRF; type: binding; settings: suggested by homology of human GRF 30-37 with NGE 12-19
Text: The sequences of the NGE's correspond to the sequences of amino acids 110-128 of the MCH precursors (see Tables 1 and 2, below). […] It is thought that NGE's, like NEI, have a biological function in vivo.

[3] = tested on: melanosomes in amphibians; settings: cited from earlier work
fish melanophores = settings: cited from earlier work
[4] = Biological potency in mammalian assays
[5] = tested on: rat pituitary halves (secretion of ACTH); experiment: In vitro assay using rat pituitary halves to monitor secretion of ACTH; type: cell-based
Protocol: In vitro assays are performed with the mammalian MCH and the synthetic salmon MCH peptides, using rat pituitary halves to monitor for the secretion of ACTH. Assays of this type are described in more detail in Proc. Natl. Acad. Sci., 85, 5556-5560 (1988). […] As a result, it is believed that mammalian MCH should be useful as a natural, peptide regulator of the pituitary-adrenal axis. It is likewise believed that mammalian MCH peptides will be useful for clinical application in the treatment of pigment disorders as well as in the diagnosis and therapy of melanoma. It is also believed that they will be effective in the treatment of certain forms of dementia and may have uses in connection with nerve damage situations.

Compound | cross-reactivity in the salmon MCH radioimmunoassay [1] | other results
SS-28: SS-28 peptide tested for RIA cross-reactivity (SANSNPAMAPRERKAGCKNFFWKTFTSC; ends and bridges not checked; cysteine pairing not given here; UniProt P61278 89-116, looked up) | no cross-reactivity | 
rat ACTH: rat ACTH peptide hormone (SYSMEHFRWGKPVGKKRRPVKVYPNVAENESAEAFPLEF; Corticotropin; UniProt P01194 124-162, looked up) | no cross-reactivity | 
SS-14: SS-14 peptide tested for RIA cross-reactivity (AGCKNFFWKTFTSC; ends and bridges not checked; cysteine pairing not given here; UniProt P61278 103-116, looked up) | no cross-reactivity | 
CC[C@H](C)[C@@H]1NC(=O)[C@H](Cc2ccc(O)cc2)NC(=O)[C@@H](N)CSSC[C@@H](C(=O)N2CCC[C@H]2C(=O)N[C@@H](CC(C)C)C(=O)NCC(N)=O)NC(=O)[C@H](CC(N)=O)NC(=O)[C@H](CCC(N)=O)NC1=O [oxytocin] | no cross-reactivity | 
Gly-XNGE -Phe-Pro-Ala-Glu-Asn-Gly-Val-Gln-Asn-Thr-Glu-Ser-Thr-Gln-Glu |  | cross-reaction of anti-GRF antibodies [2]: cross-react
CSCC[C@@H]1NC(=O)[C@@H](NC(=O)[C@H](CCCNC(=N)N)NC(=O)[C@H](CCSC)NC(=O)[C@@H](NC(=O)[C@@H](N)CC(=O)O)[C@@H](C)O)CSSC[C@@H](C(=O)N[C@@H](Cc2c[nH]c3ccccc23)C(=O)N[C@@H](CCC(=O)O)C(=O)N[C@H](C(=O)O)C(C)C)NC(=O)[C@@H]2CCCN2C(=O)[C@H](CCCNC(=N)N)NC(=O)[C@H](Cc2ccc(O)cc2)NC(=O)[C@H](C(C)C)NC(=O)[C@H](CCCNC(=N)N)NC(=O)CNC(=O)[C@H](C(C)C)NC1=O [salmon MCH] (H-DTMRCMVGRVYRPCWEV-OH; disulfide 5-14) |  | EC50 in the radioimmunoassay ([1]; Antibody PBL #171 1/120,000 final dilution, 125I-salmon MCH tracer, n=10): 18.5 ± 3.2 pg; effect on melanosomes in amphibians [3]: causing dispersal of melanosomes; melanosome aggregation (fish melanophores): induces melanosome aggregation; biological potency in mammalian assays [4]: extremely little biological potency; modulation of ACTH secretion/production [5]: substantially no effect on the secretion of ACTH
β-endorphin (YGGFMTSEKSQTPLVTLFKNAIIKNAYKKGE; Beta-endorphin; UniProt P01189 237-267, looked up) | no cross-reactivity | 
rat CRF: rat corticotropin-releasing factor (SEEPPISLDLTFHLLREVLEMARAEQLAQQAHSNRKLMEII; ends and bridges not checked; UniProt P01143 145-185, looked up) | no cross-reactivity | 
GnRH: GnRH peptide hormone (QHWSYGLRPG; ends and bridges not checked; UniProt P01148 24-33, looked up) | no cross-reactivity | 
NC(=O)CC[C@@H]1NC(=O)[C@H](Cc2ccccc2)NC(=O)[C@H](Cc2ccc(O)cc2)NC(=O)[C@@H](N)CSSC[C@@H](C(=O)N2CCC[C@H]2C(=O)N[C@@H](CCCN=C(N)N)C(=O)NCC(N)=O)NC(=O)[C@H](CC(N)=O)NC1=O [arginine vasopressin] | no cross-reactivity | 
human GRF(1-40)-OH: human growth hormone releasing factor (1-40), free acid (YADAIFTNSYRKVLGQLSARKLLQDIMSRQQGESNQERGA-OH; UniProt P01286 32-71, looked up, fragment) | no cross-reactivity | 
rat GRF: rat growth hormone releasing factor (HADAIFTSSYRRILGQLYARKLLHEIMNRQQGERNQEQRSRFN; Somatoliberin; UniProt P09916 31-73, looked up) | no cross-reactivity | 
β-MSH | no cross-reactivity | 
CSCC[C@@H]1NC(=O)[C@@H](NC(=O)[C@H](CCCNC(=N)N)NC(=O)[C@H](CC(C)C)NC(=O)[C@H](CCSC)NC(=O)[C@H](CC(=O)O)NC(=O)[C@H](Cc2ccccc2)NC(=O)[C@@H](N)CC(=O)O)CSSC[C@@H](C(=O)N[C@@H](Cc2c[nH]c3ccccc23)C(=O)N[C@@H](CCC(N)=O)C(=O)N[C@H](C(=O)O)C(C)C)NC(=O)[C@@H]2CCCN2C(=O)[C@H](CCCNC(=N)N)NC(=O)[C@H](Cc2ccc(O)cc2)NC(=O)[C@H](C(C)C)NC(=O)[C@H](CCCNC(=N)N)NC(=O)CNC(=O)[C@H](CC(C)C)NC1=O [mammalian MCH] |  | displacement in radioimmunoassays ([1]; radioimmunoassays also run with synthetic salmon MCH): shows displacement; biological potency in mammalian assays [4]: more potent reaction than the alpha-MSH and beta-MSH antagonists; modulation of ACTH secretion/production [5]: very potent modulators of ACTH production

Reference: US5530095A, “Peptides of melanin concentrating hormone precursor” (The Salk Institute for Biological Studies, priority 1995, dated 1996)
